In PMC10770490, “Two distinct modes of action of molecular glues in the plant hormone co-receptor COI1-JAZ system” (iScience, 2023):
Like-named read-outs stand apart in the source and are kept apart here.

Columns and labels:
[1] = molecular target: T1, COI1-JAZ1 (Arabidopsis thaliana, UniProt O04197+Q9LMA8, DEL221-253); test: biochemical; format: binding
T1 construct: GST (N, cleaved yes); made in house; host or cells: Sf9 insect cells (COI1-ASK1); JAZ peptide by chemical synthesis
Protocol: (§1) JAZ1/9 peptides were dissolved in sterilized water to generate 10 mM stock solutions and diluted to prepare 100 μM stock solutions. […] DSF experiments were carried out using StepOnePlus Real-Time PCR System (Thermo Fisher Scientific, Inc., MA, US). Protein Thermal Shift Dye (Thermo Fisher Scientific, Inc., MA, US) was used as the reporter dye. […] Samples were heated from 25 °C to 95 °C. The denaturation curve was obtained using Protein Thermal Shift Software (Thermo Fisher Scientific, Inc., MA, US) to afford ΔTm value for each condition. An average ΔTm value of three independent measurements was plotted, and ΔTm dose-response curves were analyzed with nonlinear curve-fitting analysis to evaluate Ka and Kd values using KaleidaGraph software (v4.1.1, Synergy Software).
(§2) The determination of the Kd value was conducted by curve fitting the dose-response ΔTm values. Experiments were performed in triplicate to obtain the mean and S.D. (shown as error bars). Dose-response curves were analyzed with the nonlinear curve-fitting analysis to evaluate apparent Ka and Kd values using KaleidaGraph v4.1.1 software.

[2] = molecular target: T2, COI1 (Arabidopsis thaliana, UniProt O04197); test: Differential scanning fluorimetry (DSF) assay, COI1 alone; format: binding; settings: for shift in the melting point of COI1: COI1 alone, substance titrated
T2 construct: GST (N, cleaved yes); made in house; host or cells: Sf9 insect cells
Protocol: as §1, with “COR/COR-MO/CFA-Ile were dissolved in DMSO, (3R,7S)/(3R,7R)-JA-Ile and cis-OPDA were dissolved in ethanol, JA was dissolved in sterilized water to generate 10 mM stock solutions and diluted with corresponding solvent for preparation of 100 μM and 1 mM stock solutions, respectively. JAZ1/9” for “JAZ1/9”
as §2

[3] = molecular target: T3, GST-COI1 (Arabidopsis thaliana, UniProt O04197); test: Isothermal titration calorimetry (iTC), GST-COI1 only; format: binding
T3 construct: made in house; host or cells: Sf9 insect cells
T3 sequence (O04197 1-592): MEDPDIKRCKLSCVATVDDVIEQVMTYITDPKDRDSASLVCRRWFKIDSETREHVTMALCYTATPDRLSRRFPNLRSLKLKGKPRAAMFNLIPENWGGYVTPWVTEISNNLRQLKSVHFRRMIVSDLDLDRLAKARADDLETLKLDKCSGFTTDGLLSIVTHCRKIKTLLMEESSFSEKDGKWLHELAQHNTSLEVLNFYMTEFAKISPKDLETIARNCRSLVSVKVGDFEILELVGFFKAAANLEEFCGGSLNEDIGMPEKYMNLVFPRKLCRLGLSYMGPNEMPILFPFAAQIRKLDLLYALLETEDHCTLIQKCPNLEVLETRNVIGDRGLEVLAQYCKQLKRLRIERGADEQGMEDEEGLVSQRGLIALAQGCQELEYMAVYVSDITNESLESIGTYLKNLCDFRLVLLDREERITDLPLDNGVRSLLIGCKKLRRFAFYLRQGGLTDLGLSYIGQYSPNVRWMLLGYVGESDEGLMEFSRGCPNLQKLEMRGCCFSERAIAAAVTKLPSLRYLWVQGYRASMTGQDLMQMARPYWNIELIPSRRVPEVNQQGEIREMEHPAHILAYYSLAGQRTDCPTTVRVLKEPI
T3 sequence (Q39255 1-160 partner): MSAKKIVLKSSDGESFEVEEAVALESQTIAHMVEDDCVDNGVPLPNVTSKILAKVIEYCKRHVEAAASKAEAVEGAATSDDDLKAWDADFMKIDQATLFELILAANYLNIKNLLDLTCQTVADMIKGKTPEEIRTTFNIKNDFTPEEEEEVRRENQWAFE
Protocol: (§3) The experiments were performed with iTC 200 Microcalorimeter (MicroCal, Malvern Panalytical, UK) at 25°C. GST-COI1 concentration was determined by BCA assay (Thermo Fisher Scientific, Inc., MA, US) using NanoPhotometerN60 (IMPLEN GmbH, Germany). […] The measurements were carried out by 19 × 2 μL successive injections of solutions (initial injection of 0.4 μL), with a 180s spacing time between injections, stirring of 750 rpm, and a reference power of 5 μcal/s. The measured heat changes of the binding reactions were integrated and processed using the standard “one set of sites” model implemented in the Origin (version 7.0) software package to determine the binding stoichiometry (n) and the equilibrium dissociation constant (Kd) and other thermodynamic parameters (ΔG, ΔH, ΔS).

[4] = molecular target: T4, COI1-JAZ9 (Arabidopsis thaliana, UniProt O04197+Q8W4J8); test: DSF assay, COI1 with JAZ9 degron peptide (JAZP9); format: binding
T4 sequence (Q8W4J8 218-238, one chain of several): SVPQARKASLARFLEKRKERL
Protocol: as §1, with “COR/COR-MO/CFA-Ile were dissolved in DMSO, (3R,7S)/(3R,7R)-JA-Ile and cis-OPDA were dissolved in ethanol, JA was dissolved in sterilized water to generate 10 mM stock solutions and diluted with corresponding solvent for preparation of 100 μM and 1 mM stock solutions, respectively. JAZ1/9” for “JAZ1/9”
as §2

[5] = Isomerization under DSF conditions analyzed by UPLC-MS/MS; format: physicochemical; settings: DSF heating conditions
Text: Thus, some amount of (3R, 7S)-JA-Ile still exists under the DSF heating conditions.

[6] = tested on: T5, JAZP1; test: Isothermal titration calorimetry (iTC), JAZP1 only; format: binding, Arabidopsis thaliana; settings: 150 μM ligand into JAZP1 (10 μM), only heat of dilution
T5 construct: made in house; host or cells: chemical peptide synthesis
Protocol: as §3

[7] = molecular target: T6, GST-COI1/JAZP1 (Arabidopsis thaliana, UniProt O04197+Q9LMA8, DEL221-253); test: Isothermal titration calorimetry (iTC), GST-COI1/JAZP1; format: binding
T6 construct: made in house; host or cells: Sf9 insect cells (GST-COI1/ASK1); JAZ peptide by chemical synthesis
T6 sequence (Q9LMA8 200-220, stated change not applied, one chain of several): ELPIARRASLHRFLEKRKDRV
Protocol: The experiments were performed with iTC 200 Microcalorimeter (MicroCal, Malvern Panalytical, UK) at 25°C. […] The measurements were carried out by 19 × 2 μL successive injections of solutions (initial injection of 0.4 μL), with a 180s spacing time between injections, stirring of 750 rpm, and a reference power of 5 μcal/s. The measured heat changes of the binding reactions were integrated and processed using the standard “one set of sites” model implemented in the Origin (version 7.0) software package to determine the binding stoichiometry (n) and the equilibrium dissociation constant (Kd) and other thermodynamic parameters (ΔG, ΔH, ΔS).

[8] = design: method as in PMID 19349968; settings: after 1 h of heating at 95°C ref 12; cited from earlier work
[9] = molecular target: COI1-JAZP1; design: method as in PMID 20927106; settings: previously obtained ref 19; cited from earlier work
[10] = molecular target: T4, COI1-JAZ9; design: method as in PMID 19349968; settings: pull-down assay, times stronger ref 12; cited from earlier work
[11] = molecular target: T2, COI1; settings: read-out: Kd (COI1, iTC assay); previously reported using the iTC assay ref 18; cited from earlier work

In the case of `CC/C=C\C[C@H]1C(=O)CC[C@@H]1CC(=O)O` (racemic) [racemic jasmonic acid, jasmonic acid], the “effect of addition of JAZP1/9 on the shift in melting point” value ([1]; DSF, COI1 with JAZP1/9) is reported as “did not affect the shift in melting point” and the “shift in the melting point of COI1” value ([2]; DSF) is reported as “no shift”.
With `CC/C=C\C[C@@H]1C(=O)CC[C@@H]1CC(=O)N[C@H](C(=O)O)[C@@H](C)CC` [(3R, 7S)-JA-Ile, (3R, 7S)-jasmonoyl-L-isoleucine] the Kd ([1]; read-out: Kd COI1-JAZ1) was 17.7 µM, the Kd [3] was 11 µM and the “-TΔS” value ([3]; iTC, GST-COI1) was 13.3 kcal/mol. The ΔG ([3]; iTC, GST-COI1) was -6.8 kcal/mol, the ΔH ([3]; iTC, GST-COI1) was -20.0 kcal/mol and the “n (binding stoichiometry)” value ([3]; iTC, GST-COI1, N = 1 set manually due to low C condition) was 1.00. For the same molecule, the Kd [4] was 7.39 µM, the “(3R, 7R)-JA-Ile formed by isomerization under DSF conditions” value [5] was 63.9% and the “(3R, 7S)-JA-Ile remaining under DSF conditions” value [5] was 36.1%. The “interaction between JAZP1-ligand” value [6] was “no interaction”, the “-TΔS” value [7] was 14.8 kcal/mol and the “n (binding stoichiometry)” value [7] was 0.641±0.0063. The ΔG [7] was -9.5 kcal/mol, the ΔH [7] was -24.3 kcal/mol and the “(3R, 7S)-JA-Ile isomerized to (3R, 7R)-JA-Ile” value [8] was 65%.
`CC[C@H]1C=C(C(=O)N[C@H](C(=O)O)[C@@H](C)CC)[C@H]2CCC(=O)[C@H]2C1` [CFA-Ile, (3R, 7S)-coronafacyl L-Ile] showed a Kd ([1]; read-out: Kd COI1-JAZ1) of 2.66 µM, a Kd [4] of 2.95 µM and a Kd [2] of 14.1 µM. The “shift in the melting point of COI1” value ([2]; DSF) was “significant shift”.
For `CCC1C=C(C(=O)N[C@H](C(=O)O)C(C)C)C2CCC(=O)C2C1` (stereo partly drawn) [CFA-Val, (3R, 7S)-coronafacyl L-Val], the Kd ([1]; DSF, 1 μM tag-free COI1 with 3 μM JAZP1, read-out: Kd COI1-JAZ1) was 6.63 µM, the Kd ([4]; DSF, 1 μM tag-free COI1 with 3 μM JAZP9) was 9.77 µM and the “shift in the melting point of COI1” value ([2]; DSF) was “significant shift”. For the same molecule, the Kd ([2]; read-out: Kd COI1, DSF, 1 μM tag-free COI1, ΔTm dose-response curve fitting) was 28.1 µM.
For `CC[C@H]1C=C(C(=O)N[C@@]2(C(=O)O)C[C@@H]2CC)[C@H]2CCC(=O)[C@H]2C1` [COR, coronatine], the Kd [9] is given as roughly 0.11 µM, the “affinity for COI1-JAZ9 relative to (3R, 7S)-JA-Ile” value [10] is given as “approximately 100 times” and the Kd ([1]; read-out: Kd COI1-JAZ1) is given as 0.6 µM. The Kd [4] was 0.29 µM, the Kd [11] was 0.96 µM and the Kd [2] was 4.08 µM. For the same molecule, the “shift in the melting point of COI1” value ([2]; DSF) was “shifted to a higher temperature”.
Molecule `CC[C@H]1C=C(C(=O)N[C@@]2(C(=O)O)C[C@@H]2CC)[C@H]2CCC(=NOC)[C@H]2C1` [COR-MO] has a Kd ([1]; read-out: Kd COI1-JAZ1) of 2.31 µM, a Kd [4] of 2.67 µM and a Kd [2] of 2.65 µM. For the same molecule, the “shift in the melting point of COI1” value ([2]; DSF) was “shifted to a higher temperature”.
For `CCC=CCC1C(=O)CCC1CC(=O)NC1(C(=O)O)CC1CC` [JA-CMA, (3R, 7S)/(3R, 7R)-jasmonoyl CMA], the Kd [1] was 33.5 µM, the Kd [4] was 24.2 µM and the “shift in the melting point of COI1” value ([2]; DSF) was “little or no shift”.
For `CC/C=C\C[C@@H]1C(=O)C=C[C@@H]1CCCCCCCC(=O)O` [cis-OPDA, (+)-cis-12-oxo-phytodienoic acid], the “shift in the melting point of COI1” value ([2]; DSF) was “no shift”.
